“And” between values parts separate entries of the source, which are not always exact repeats. Identical values can stand only once.

The test system of data set [1] is HIV-1. The following applies: C8166 + HIV-1, M.O.I 0.0089, three days; one value per date of experiment.
Experimental: 50□1 diluted supernatant fluid of HIV-1 was added to the mixture and the value of M.O.I was 0.0089. At the same time, the control hole without the drug and the control hole with positive drug AZT were set. They were put into 5%CO2 incubator under 37? for three days. The amount of syncytium was counted under an inverted microscope (100×□) (in five visual fields). IC50, that is, the concentration of the drugs inhibiting 50% syncytium formation, was determined.
Data set [2] has as its system C8166 cells. In kind it is cell-based.
Experimental: 50□1 medium was added into half of the holes on the culture plate and 50□1 diluted supernatant fluid of HIV-1, in which the value of M.O.I was 0.0089, was added into the other half of the holes on the culture plate. At the same time, the blank control holes without the drug (the negative control) were set and the control culture holes with positive drug AZT (the positive control) were set too. They were put into 5%CO2 incubator under 37 °C for three days. The survival rate of cells was determined by MTT method. OD values (595 nm/630 nm) were determined by ELx800ELISA Reader. The following formulae were used to calculate the survival rate of normal cells caused by the drug and the protective rate of the drug for HIV-1-infected cells. Survival rate of normal cells (%) =OD value of the experimental hole/OD value of negative control hole □ 100%
In data set [3] the test system is HIV-1. The following applies: HIV-1-infected C8166, three days, MTT.
Experimental: 50□1 medium was added into half of the holes on the culture plate and 50□1 diluted supernatant fluid of HIV-1, in which the value of M.O.I was 0.0089, was added into the other half of the holes on the culture plate. At the same time, the blank control holes without the drug (the negative control) were set and the control culture holes with positive drug AZT (the positive control) were set too. They were put into 5%CO2 incubator under 37 °C for three days. The survival rate of cells was determined by MTT method. OD values (595 nm/630 nm) were determined by ELx800ELISA Reader. […] Survival rate of normal cells (%) =OD value of the experimental hole/OD value of negative control hole □ 100%
Protective rate of infected cells (%)=(OD value of the experimental hole—OD value of positive control hole)/(OD value of negative control hole—OD value of positive control hole) □ 100%
Data set [4] has as its system C8166 cells. Format: cell-based. The following applies: C8166, three days, MTT; one value per date of experiment.
The nature of data set [5]: Clinical trial in type 2 diabetes patients. Conditions: 52 cases per group. Format: in vivo, human. The source says: According to diagnostic criteria of diabetes by WHO(1985), 104 diabetes patients were diagnosed to have type 2 diabetes. Wherein, 56 patients were male and 48 patients were female at average age of […]. All of them had diabetes for […] years. They were divided into two groups at random:
Group A: treatment group administrated the granules of example 1
Group B: control group administrated Micronase (produced by Shandong Boshan Pharmaceutical Factory, Batch: 990917)
Control group: Micronase was orally taken at 30 minutes before meal in three times per day and 2.5 mg(tablet) each time.

For `Cc1cn([C@H]2C[C@H](N=[N+]=[N-])[C@@H](CO)O2)c(=O)[nH]c1=O` [AZT], in the data set with HIV-1 [1], the “IC50 inhibiting syncytium formation (head prints TC50)” value is 0.23 µg/mL and 0.18 µg/mL. The “TC50 obtained by protective experiment (toxic effects on normal cells)” value with C8166 cells [2] is >50 µg/mL. For the same molecule, the “IC50 (EC50 of protective effects on infected cells)” value with HIV-1 [3] amounted to 0.15 µg/mL. Also, the “TC50 (concentration causing the death of 50% the cells)” value in the data set with C8166 cells [4] was >50 µg/mL.
Consider `COc1ccc(Cl)cc1C(=O)NCCc1ccc(S(=O)(=O)NC(=O)NC2CCCCC2)cc1` [Micronase], for which, in data set [5] (baseline), the “blood sugar at 2 hours after meal, mean before therapy” value is 14.67 ± 1.49 and the “fasting blood sugar, mean before therapy” value was 9.53 ± 1.46. For the same molecule, in data set [5] (therapy for 3 months), the “blood sugar at 2 hours after meal, mean after therapy” value was 12.14 ± 2.53 and the “fasting blood sugar, mean after therapy” value is given as 6.53 ± 1.53.
